Converted amounts (≈) assume the structure as drawn.
Assays:
M. tuberculosis H37Rv = experiment: microbe, parasite or virus in culture; type: cell-based, Mycobacterium tuberculosis; conditions: for SI (CC50/MIC): ratio of CC50 for L929 fibroblasts to MIC for strain H37Rv
M. tuberculosis H37Ra = experiment: microbe, parasite or virus in culture; type: cell-based, Mycobacterium tuberculosis
L929 murine fibroblasts = experiment: in vitro; type: cell-based; conditions: L929, MTT assay (Table S1)
Protocol: (§1) A549 human pulmonary epithelial cells (KCLB 10185), human embryonic kidney (HEK) 293 cells (KCLB 21573), human THP-1 leukemia cells (KCLB 40202), human neuroblastoma SH-SY5Y cells (KCLB 22266), Murine Raw 264.7 macrophages (KCLB 40071), and L929 murine fibroblasts (KCLB 10001) were purchased from the KCLB (Seoul, Korea). Cytotoxicity testing was performed using the MTT assay and the WST-1 cell viability assay as previously described.

[1] = test system: Murine Raw 264.7 macrophages; experiment: in vitro; type: cell-based; conditions: RAW, MTT assay (Table S1)
Protocol: as §1

A549 cell line = conditions: cited from earlier work

For COC(=O)/C(=C/c1ccc(OCc2ccccc2)cc1)c1ccc(OC)c(OC)c1 [DPGA3], the MIC (M. tuberculosis H37Rv) was 3.1 µg/mL (≈ 7.66 µM), the “SI (CC50/MIC)” value (M. tuberculosis H37Rv) was over 32.2 and the MIC (M. tuberculosis H37Ra) was 3.1 µg/mL (≈ 7.66 µM). For the same compound, the CC50 (L929 murine fibroblasts) was over 100 µg/mL and the CC50 [1] was over 100 µg/mL.

For COc1ccc2c3c(c4cc(OC)c(OC)cc4c2c1)CN1CCC[C@H]1C3 [DPG, deoxypergularinine], the CC50 (A549 cell line) is given as 18.7 µg/mL (≈ 51.5 µM).

In the case of CCCCOc1ccc(/C=C(/C(=O)OC)c2ccc(OC)c(OC)c2)cc1 [DPGA9], the MIC (M. tuberculosis H37Rv) is reported as 25 µg/mL (≈ 67.5 µM), the “SI (CC50/MIC)” value (M. tuberculosis H37Rv) is reported as over 4.0 and the MIC (M. tuberculosis H37Ra) is reported as 25 µg/mL (≈ 67.5 µM). For the same compound, the CC50 (L929 murine fibroblasts) was over 100 µg/mL and the CC50 [1] was over 100 µg/mL.

Compound COc1ccc(/C(=C\c2ccc(OCc3ccccc3)cc2)C(=O)O)cc1OC [DPGA2] has an MIC (M. tuberculosis H37Rv) of over 100 µg/mL, an MIC (M. tuberculosis H37Ra) of 100 µg/mL (≈ 256 µM) and a CC50 (L929 murine fibroblasts) of over 100 µg/mL. For the same compound, the CC50 [1] was over 100 µg/mL.
